US20050032761A1, “Lipid profile modulation” (priority 2001, published 2005)

What was measured:
11β-HSD1 [1] = biological target: T1, 11β-HSD1 (Rattus norvegicus, UniProt P16232); assay: 11β-HSD1 activity in tissue homogenates after carbenoxolone administration; set-up: from tissue; host or cells: Zucker rat liver, quadriceps skeletal muscle, subcutaneous lumbar fat, omental fat homogenates; species or system Zucker rats; conditions: ex vivo, liver; lean and obese animals
Procedure: (§1) Drug treatment—Drug treatment was commenced when the animals were 6 weeks of age. […] Animals were weighed regularly to allow accurate dosing with drugs, and to follow the progress of weight gain. Food intake for each cage of 4 animals was measured daily. After two weeks of treatment animals underwent an oral glucose tolerance test, which consisted of an overnight fast, followed by an oral glucose load of 2 g/kg body weight at 0900 h. Blood samples were taken by tail-nick at 0, 30 and 120 min after the glucose bolus.
Measurement of enzyme activities in vitro—11β-HSD1 activity was measured in homogenates of tissues by incubating in duplicate at 37° C., in Krebs Ringer buffer containing glucose (0.2%), NADP (2 mM) and 1,2,6,7-[^3H]4-corticosterone (100 nM). Conditions were optimised for each tissue to ensure first order kinetics, by adjusting protein concentrations as follows: 10 μg/ml for liver; 1.5 mg/ml for quadriceps skeletal muscle; 0.5 mg/ml for subcutaneous lumbar fat and 1 mg/ml for omental fat. […] Steroids were separated by HPLC using a reverse phase μ-Bondapak C18 column at 20° C. and quantified by on-line liquid scintillation counting. No peaks other than ^3H-corticosterone and ^3H-11-dehydrocorticosterone were detected under these conditions.

5β-reductase [2] = biological target: T2, 5β-reductase (Rattus norvegicus, UniProt P31210); assay: Hepatic 5β-reductase activity in liver cytosol after carbenoxolone administration; assay type: in vivo, Zucker rats; conditions: obese animals
T2 construct: conversion of [^3H]-corticosterone to [^3H]-5β-tetrahydrocorticosterone in liver cytosol preparations; from tissue; host or cells: Zucker rat liver cytosol
T2 sequence (P31210 1-326): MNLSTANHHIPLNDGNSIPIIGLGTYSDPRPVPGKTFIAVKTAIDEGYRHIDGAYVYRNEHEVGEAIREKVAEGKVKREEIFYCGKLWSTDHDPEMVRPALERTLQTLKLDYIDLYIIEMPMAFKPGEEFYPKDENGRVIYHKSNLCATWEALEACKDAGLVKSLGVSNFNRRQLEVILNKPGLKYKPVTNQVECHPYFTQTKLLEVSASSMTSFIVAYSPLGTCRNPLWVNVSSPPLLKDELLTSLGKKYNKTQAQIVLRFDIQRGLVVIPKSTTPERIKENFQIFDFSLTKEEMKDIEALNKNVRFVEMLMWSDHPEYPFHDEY
Procedure: as §1
5β-Reductase activity in the liver was assessed by the conversion of [^3H]-corticosterone to [^3H]-5β-tetrahydrocorticosterone in liver cytosol preparations. The sub-cellular localisation and cofactor preference of 11β-HSD1 and 5β-reductase differ such that the enzyme activities can be measured independently of one another. Liver cytosol was prepared by repeated centrifugation according to the method of (Fleischer & Kervina 1974). Enzyme activity was measured by incubating cytosol (100 μg protein/ml) in duplicate at 37° C., in phosphate buffer (40 mM Na2PO4, 320 mM sucrose, 1 mM dithiothreitol, pH 7.5) containing NADPH (1 mM) and [^3H]-corticosterone (150 nM). […] Steroids were separated by HPLC using a reverse phase C8 column at 10° C., and quantified by on-line liquid scintillation counting. […]

[3] = Carbenoxolone randomised double-blind crossover study, fasting plasma lipids; conditions: men with type 2 diabetes mellitus and healthy controls, vs placebo
Description: Fasting levels of plasma lipids are shown.

[4] = Oral glucose tolerance test in lean and obese Zucker rats; assay type: in vivo
Procedure: as §1, with “bolus. […] Glucose concentrations were determined using a hexokinase glucose assay kit (Sigma, Poole, UK), for which the inter- and intra-assay coefficients of variation were both <2%.” for “bolus.”

[5] = Food intake and body weight in lean and obese Zucker rats treated with carbenoxolone; assay type: in vivo; conditions: lean or obese animals; 50 mg/kg by gavage daily, three weeks
Procedure: as §1, with “Groups of eight 5-week-old male obese and lean Zucker rats (Harlan Orlac, Bicester, UK) were characterised by phenotype; maintained under controlled conditions of light (on 0800 h-2000 h) and temperature (21° C.) and allowed free access to standard rat chow. (Special Diet Services, Witham, UK) and drinking water. Drug treatment—Drug” for “Drug treatment—Drug”

11β-HSD1 [6] = biological target: T3, 11β-HSD1 (Homo sapiens, UniProt P28845); conditions: humans; cited from earlier work
T3 construct: host or cells: human subjects in vivo
T3 sequence (P28845 whole entry): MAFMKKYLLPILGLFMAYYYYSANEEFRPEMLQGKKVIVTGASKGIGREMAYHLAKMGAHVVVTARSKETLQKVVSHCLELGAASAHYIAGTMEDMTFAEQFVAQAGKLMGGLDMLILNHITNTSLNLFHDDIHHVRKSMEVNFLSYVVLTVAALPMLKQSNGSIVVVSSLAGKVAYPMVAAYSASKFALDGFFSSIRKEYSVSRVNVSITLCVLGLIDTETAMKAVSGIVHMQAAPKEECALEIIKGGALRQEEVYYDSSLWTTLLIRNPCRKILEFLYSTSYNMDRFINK

[7] = Hypothalamic pituitary adrenal axis: adrenal weight and plasma corticosterone in Zucker rats; assay type: in vivo
Procedure: as §1, with “bolus. […] Plasma assays—Corticosterone levels were measured in plasma prepared from terminal blood samples collected at 0900-1100 h using an in-house radioimmunoassay (74). The inter- and intra-assay coefficients of variation were<10%.” for “bolus.”

[8] = Non-fasting plasma lipid levels in lean and obese Zucker rats; assay type: in vivo
Procedure: as §1, with “bolus. […] Lipid levels were measured in plasma prepared from terminal blood samples collected at 0900-1100 h. Triglycerides, total cholesterol and HDL cholesterol were measured using […] (TG, CHOL and HDL C-plus respectively) from Roche Diagnostics, Mannheim, Germany. Non-esterified fatty acids (NEFAs) were measured using the Wako NEFA C enzymatic assay (Alpha Laboratories Ltd, Hampshire, UK).” for “bolus.”

5β-reductase [9] = biological target: T4, 5β-reductase (Homo sapiens, UniProt P51857); conditions: reported (70); cited from earlier work
T4 sequence (P51857 1-326): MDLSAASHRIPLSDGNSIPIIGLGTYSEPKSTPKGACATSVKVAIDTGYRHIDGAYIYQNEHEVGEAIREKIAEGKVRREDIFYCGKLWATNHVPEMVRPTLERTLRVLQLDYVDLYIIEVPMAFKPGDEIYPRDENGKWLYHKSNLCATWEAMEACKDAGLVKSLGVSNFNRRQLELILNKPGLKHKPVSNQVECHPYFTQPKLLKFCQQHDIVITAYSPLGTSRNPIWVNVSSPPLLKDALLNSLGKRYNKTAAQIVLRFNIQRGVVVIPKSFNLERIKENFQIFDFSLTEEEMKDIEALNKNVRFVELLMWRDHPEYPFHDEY

[10] = system: glucocorticoid receptor-mediated response in human skin; assay: Skin blanching after topical application to forearm skin; assay type: in vivo; conditions: applied together with beclomethasone, 12 healthy humans
Procedure: The intensity of skin blanching was recorded the following day by two observers who were blind to the order of application of steroid solutions, as described (80).

11β-HSD1 [11] = biological target: T1, 11β-HSD1; assay: Incubation of beclomethasone with homogenised rat liver; assay type: in vitro ADME; set-up: incubation of beclomethasone with homogenised rat liver; from tissue; host or cells: homogenised rat liver; conditions: HPLC, UV 254 nm
[12] = non-fasting plasma, obese animals

T1 sequence (P16232 whole entry): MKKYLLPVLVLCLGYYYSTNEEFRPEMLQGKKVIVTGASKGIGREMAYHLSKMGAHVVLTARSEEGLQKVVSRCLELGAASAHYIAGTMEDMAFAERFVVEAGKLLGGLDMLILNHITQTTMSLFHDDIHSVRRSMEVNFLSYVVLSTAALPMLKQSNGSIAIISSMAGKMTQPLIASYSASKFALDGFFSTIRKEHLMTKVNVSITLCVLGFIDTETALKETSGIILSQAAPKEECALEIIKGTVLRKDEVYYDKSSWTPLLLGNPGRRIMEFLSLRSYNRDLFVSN

**Q.** Which “hepatic 11β-HSD1 activity (conversion of corticosterone to 11-dehydrocorticosterone)” value (11β-HSD1 [1]) does the source give for `CC1(C)[C@@H](OC(=O)CCC(=O)O)CC[C@]2(C)[C@H]3C(=O)C=C4[C@@H]5C[C@@](C)(C(=O)O)CC[C@]5(C)CC[C@@]4(C)[C@]3(C)CC[C@@H]12` [Carbenoxolone] here?
**A.** inhibition

**Q.** And the “hepatic 5β-reductase activity (conversion of corticosterone to 5β-tetrahydrocorticosterone)” value (5β-reductase [2])?
**A.** exacerbated the increase

**Q.** And the “HDL (high density lipoprotein) cholesterol concentrations” value [3]?
**A.** raised

**Q.** And the total cholesterol [3]?
**A.** did not affect

**Q.** And the triglyceride concentrations [3]?
**A.** lowered

**Q.** What about the plasma insulin ([4]; 30 min after glucose, both lean and obese animals) of the same compound?
**A.** increased

**Q.** What about the plasma insulin ([4]; 120 min after glucose, obese animals) of the same compound?
**A.** increased

**Q.** What about the glucose tolerance ([4]; Zucker rats) of the same compound?
**A.** no effect

**Q.** And the plasma insulin ([4]; fasting state, both lean and obese animals)?
**A.** increased

**Q.** What about the plasma glucose ([4]; lean and obese, fasting and after oral glucose load, two weeks of treatment) of the same compound?
**A.** no significant effect

**Q.** And the body weight [5]?
**A.** no effect

**Q.** And the food intake [5]?
**A.** no effect

**Q.** What about the “amount of glucose required to maintain normoglycemia” value (11β-HSD1 [6]) of the same compound?
**A.** increases

**Q.** And the forearm glucose uptake (11β-HSD1 [6])?
**A.** without altering

**Q.** What about the plasma corticosterone levels ([7]; lean and obese, terminal blood, trend for carbenoxolone to increase) of the same compound?
**A.** no statistically significant differences

**Q.** What about the adrenal weight ([7]; lean animals) of the same compound?
**A.** no effect

**Q.** What about the “adrenal weight (adrenal hypertrophy)” value ([7]; obese rats) of the same compound?
**A.** ameliorated

**Q.** And the “non-fasting plasma NEFAs” value ([8]; all groups, lean and obese)?
**A.** not different

**Q.** And the total cholesterol ([8]; non-fasting plasma, lean and obese rats, three weeks of treatment)?
**A.** not affected

**Q.** And the HDL cholesterol [8, 12]?
**A.** increased

**Q.** And the triglycerides [8, 12]?
**A.** reduced

**Q.** What does the source list for `CC1(C)[C@@H](O)CC[C@]2(C)[C@H]3C(=O)C=C4[C@@H]5C[C@@](C)(C(=O)O)CC[C@]5(C)CC[C@@]4(C)[C@]3(C)CC[C@@H]12` [Glycyrrhetinic acid]?
**A.** inhibition of 5β-reductase (5β-reductase [9]): inhibit; blanching response to beclomethasone (area under the dose-response curve) [10]: reduced

**Q.** For `C[C@H]1C[C@H]2[C@@H]3CCC4=CC(=O)C=C[C@]4(C)[C@@]3(Cl)[C@@H](O)C[C@]2(C)[C@@]1(O)C(=O)CO` [beclomethasone], which “conversion of beclomethasone to 11-dehydrobeclomethasone” value (11β-HSD1 [11]) is on record?
**A.** substrate
